Assay results: patent publication US11331299B2, “Medicinal use of serrulatane diterpenes” (The University of Sydney, priority 2016, dated 2022)
Read-outs that look alike come from different tables or passages of the source.

What was measured:
[1] = test system: H3K36 me2; assay: Cell-based detection methyl modifications; conditions: read-out: % Inhibition of Control Values
[2] = target: MLL complex (h) (Homo sapiens, UniProt Q03164); assay: Epigenetic enzyme assay, Methyltransferases (MTs); format: biochemical; conditions: 10 μM; read-out: % Inhibition of Control Values
[3] = target: T1, FALZ (h) bromodomain (Homo sapiens, UniProt Q12830); assay: Epigenetic binding assay, Bromodomain; conditions: 10 μM; read-out: % Inhibition of Control Specific Binding
T1 construct: Bromodomain; Eurofins CEREP (France), contract laboratory

[4] = target: T2, CYP2C8 (Homo sapiens, UniProt P10632); assay: Cytochrome P450 Inhibition (CYP panel); format: in vitro ADME; conditions: probe paclitaxel
T2 construct: Human liver microsomes; from tissue; host or cells: human liver microsomes
T2 sequence (P10632 1-490): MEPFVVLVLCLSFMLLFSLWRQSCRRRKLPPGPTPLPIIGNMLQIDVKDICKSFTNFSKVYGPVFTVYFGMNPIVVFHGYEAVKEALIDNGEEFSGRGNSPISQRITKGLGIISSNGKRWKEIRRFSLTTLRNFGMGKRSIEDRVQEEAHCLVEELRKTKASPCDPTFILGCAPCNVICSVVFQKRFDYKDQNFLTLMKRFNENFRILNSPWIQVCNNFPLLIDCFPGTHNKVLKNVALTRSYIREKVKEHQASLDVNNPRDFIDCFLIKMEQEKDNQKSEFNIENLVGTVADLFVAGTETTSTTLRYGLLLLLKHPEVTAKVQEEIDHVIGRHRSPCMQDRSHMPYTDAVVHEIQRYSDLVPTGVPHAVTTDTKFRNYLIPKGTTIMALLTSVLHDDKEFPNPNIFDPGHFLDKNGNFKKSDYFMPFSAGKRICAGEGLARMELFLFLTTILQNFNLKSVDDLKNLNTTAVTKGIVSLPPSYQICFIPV

[5] = target: T3, TRIM 33 (h) PHD domain (Homo sapiens, UniProt Q9UPN9); assay: Epigenetic binding assay, PHD domain; conditions: for inhibition at 10 µM: read-out: % Inhibition of Control Specific Binding
T3 construct: Eurofins CEREP (France), contract laboratory
T3 sequence (Q9UPN9 887-934 limits assumed): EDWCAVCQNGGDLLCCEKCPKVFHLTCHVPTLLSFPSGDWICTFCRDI

[6] = target: T4, KAT2A (GCN5L2) (h) bromodomain (Homo sapiens, UniProt Q92830); assay: Epigenetic binding assay, Bromodomain; conditions: for inhibition at 10 µM: read-out: % Inhibition of Control Specific Binding
T4 construct: Bromodomain
T4 sequence (Q92830 728-832 limits assumed): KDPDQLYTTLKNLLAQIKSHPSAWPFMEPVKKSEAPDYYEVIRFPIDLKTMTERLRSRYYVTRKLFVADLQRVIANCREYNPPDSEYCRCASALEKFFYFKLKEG

[7] = test system: RKO-AS45-1; assay: OncoPanel cell proliferation assay (10-day); format: cell-based, human; conditions: for EC50 / GI50 / IC50: Homo sapiens, RKOAS451, RKO-AS45-1, Colon; for EC50: read-out: Cell Count EC50; for GI50: read-out: Cell Count GI50; for IC50: read-out: Cell Count IC50
[8] = target: T5, CYP2B6 (Homo sapiens, UniProt P20813); assay: Cytochrome P450 Inhibition (CYP panel); conditions: human, probe bupropion
T5 sequence (P20813 1-491): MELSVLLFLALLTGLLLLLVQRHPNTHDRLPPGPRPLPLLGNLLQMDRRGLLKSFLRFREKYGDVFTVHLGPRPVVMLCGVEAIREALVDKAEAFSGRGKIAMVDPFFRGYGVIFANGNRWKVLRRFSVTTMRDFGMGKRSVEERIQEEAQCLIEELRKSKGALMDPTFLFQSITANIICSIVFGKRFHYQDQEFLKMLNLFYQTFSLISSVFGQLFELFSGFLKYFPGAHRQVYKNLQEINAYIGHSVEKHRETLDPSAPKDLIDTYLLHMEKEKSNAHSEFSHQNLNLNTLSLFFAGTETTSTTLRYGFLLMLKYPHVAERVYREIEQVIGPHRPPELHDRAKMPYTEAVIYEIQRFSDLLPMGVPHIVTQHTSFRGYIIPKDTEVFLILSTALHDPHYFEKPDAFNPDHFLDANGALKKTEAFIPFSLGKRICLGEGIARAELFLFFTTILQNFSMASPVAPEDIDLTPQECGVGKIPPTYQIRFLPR

[9] = test system: KG-1 leukemia cell line; assay: OncoPanel cell proliferation assay (10-day); format: cell-based; conditions: Homo sapiens; for EC50: read-out: Cell Count EC50; for IC50: read-out: Cell Count IC50
[10] = target: T6, Chemokine CCR2B (Homo sapiens, UniProt P41597); assay: Chemokine CCR2B radio ligand binding; conditions: assay year 2015, read-out: % Control Response
T6 construct: expressed in transfected cells; host or cells: CHO-K1 cells
T6 sequence (P41597 1-360 isoform P41597-2): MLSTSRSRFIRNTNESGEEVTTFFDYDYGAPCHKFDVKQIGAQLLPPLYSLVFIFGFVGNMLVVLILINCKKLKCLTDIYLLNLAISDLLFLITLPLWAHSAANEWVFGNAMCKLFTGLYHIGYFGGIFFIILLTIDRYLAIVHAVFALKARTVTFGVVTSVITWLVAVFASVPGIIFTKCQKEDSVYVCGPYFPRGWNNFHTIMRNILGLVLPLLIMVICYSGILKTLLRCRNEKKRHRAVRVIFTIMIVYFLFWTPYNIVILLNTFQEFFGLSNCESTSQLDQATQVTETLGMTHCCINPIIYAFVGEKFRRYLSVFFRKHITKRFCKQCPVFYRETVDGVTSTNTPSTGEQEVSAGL
Procedure: The in vitro pharmacological studies were conducted by Eurofins PanLab (Taiwan) using the parameters shown in Table 13 with respect to appropriate literature references.

[11] = target: JMJD3 (h) (Homo sapiens, UniProt O15054); assay: Epigenetic enzyme assay, Demethylases (KDMs); format: biochemical; conditions: for inhibition at 10 µM: read-out: % Inhibition of Control Values
Sequence of JMJD3 (h) (O15054 whole entry): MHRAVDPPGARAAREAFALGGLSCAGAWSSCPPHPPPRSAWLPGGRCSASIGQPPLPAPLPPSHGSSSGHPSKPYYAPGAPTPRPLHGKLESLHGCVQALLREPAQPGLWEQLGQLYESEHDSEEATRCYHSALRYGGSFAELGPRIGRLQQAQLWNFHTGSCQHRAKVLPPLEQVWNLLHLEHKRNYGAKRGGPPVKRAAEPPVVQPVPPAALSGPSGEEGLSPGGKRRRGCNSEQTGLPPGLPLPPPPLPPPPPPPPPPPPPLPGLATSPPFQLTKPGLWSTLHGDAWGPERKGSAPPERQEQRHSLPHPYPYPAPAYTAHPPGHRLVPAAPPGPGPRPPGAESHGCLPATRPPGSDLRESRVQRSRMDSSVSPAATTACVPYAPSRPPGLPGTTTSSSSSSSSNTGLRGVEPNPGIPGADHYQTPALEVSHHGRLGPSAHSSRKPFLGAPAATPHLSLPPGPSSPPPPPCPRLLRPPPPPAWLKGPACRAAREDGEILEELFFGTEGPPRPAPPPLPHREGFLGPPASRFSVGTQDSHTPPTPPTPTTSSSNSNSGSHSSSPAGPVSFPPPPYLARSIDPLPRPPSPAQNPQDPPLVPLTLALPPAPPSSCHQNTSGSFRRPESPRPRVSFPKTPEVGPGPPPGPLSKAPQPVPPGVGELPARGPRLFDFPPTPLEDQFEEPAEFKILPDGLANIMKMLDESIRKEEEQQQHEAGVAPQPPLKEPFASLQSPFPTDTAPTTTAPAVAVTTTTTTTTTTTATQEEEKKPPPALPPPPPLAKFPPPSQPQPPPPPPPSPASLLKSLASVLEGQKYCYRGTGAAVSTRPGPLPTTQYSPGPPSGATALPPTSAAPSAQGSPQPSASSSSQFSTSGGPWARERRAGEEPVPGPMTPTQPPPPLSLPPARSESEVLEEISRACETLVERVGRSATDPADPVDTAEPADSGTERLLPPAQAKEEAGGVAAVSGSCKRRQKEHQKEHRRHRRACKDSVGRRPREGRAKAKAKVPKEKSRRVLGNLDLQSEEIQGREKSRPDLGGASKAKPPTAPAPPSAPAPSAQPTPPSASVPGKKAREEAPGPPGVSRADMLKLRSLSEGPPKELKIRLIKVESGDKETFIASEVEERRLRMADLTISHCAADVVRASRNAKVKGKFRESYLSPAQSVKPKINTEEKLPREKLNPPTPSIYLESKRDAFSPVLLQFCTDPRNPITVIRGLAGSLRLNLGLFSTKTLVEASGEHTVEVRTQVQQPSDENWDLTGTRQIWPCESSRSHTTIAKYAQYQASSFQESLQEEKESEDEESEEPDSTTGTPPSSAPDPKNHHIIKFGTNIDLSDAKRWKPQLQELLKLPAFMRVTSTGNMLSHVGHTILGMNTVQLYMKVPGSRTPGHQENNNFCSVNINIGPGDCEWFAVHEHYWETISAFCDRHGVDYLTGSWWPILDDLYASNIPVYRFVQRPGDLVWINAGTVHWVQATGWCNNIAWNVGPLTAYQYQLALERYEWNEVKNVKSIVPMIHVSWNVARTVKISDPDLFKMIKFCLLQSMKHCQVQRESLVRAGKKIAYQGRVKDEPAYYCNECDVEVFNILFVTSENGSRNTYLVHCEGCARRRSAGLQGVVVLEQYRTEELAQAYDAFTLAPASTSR

[12] = test system: SW480; assay: OncoPanel cell proliferation assay (10-day); format: cell-based, human; conditions: for EC50 / GI50 / IC50: Homo sapiens, SW480, Colon; for EC50: read-out: Cell Count EC50; for GI50: read-out: Cell Count GI50; for IC50: read-out: Cell Count IC50
[13] = target: MSK1(h) (substrate histone H3 full length) (Homo sapiens, UniProt O75582); assay: Epigenetic enzyme assay, Kinases; format: biochemical; conditions: read-out: % Inhibition of Control Values
Sequence of MSK1(h) (substrate histone H3 full length) (O75582 whole entry): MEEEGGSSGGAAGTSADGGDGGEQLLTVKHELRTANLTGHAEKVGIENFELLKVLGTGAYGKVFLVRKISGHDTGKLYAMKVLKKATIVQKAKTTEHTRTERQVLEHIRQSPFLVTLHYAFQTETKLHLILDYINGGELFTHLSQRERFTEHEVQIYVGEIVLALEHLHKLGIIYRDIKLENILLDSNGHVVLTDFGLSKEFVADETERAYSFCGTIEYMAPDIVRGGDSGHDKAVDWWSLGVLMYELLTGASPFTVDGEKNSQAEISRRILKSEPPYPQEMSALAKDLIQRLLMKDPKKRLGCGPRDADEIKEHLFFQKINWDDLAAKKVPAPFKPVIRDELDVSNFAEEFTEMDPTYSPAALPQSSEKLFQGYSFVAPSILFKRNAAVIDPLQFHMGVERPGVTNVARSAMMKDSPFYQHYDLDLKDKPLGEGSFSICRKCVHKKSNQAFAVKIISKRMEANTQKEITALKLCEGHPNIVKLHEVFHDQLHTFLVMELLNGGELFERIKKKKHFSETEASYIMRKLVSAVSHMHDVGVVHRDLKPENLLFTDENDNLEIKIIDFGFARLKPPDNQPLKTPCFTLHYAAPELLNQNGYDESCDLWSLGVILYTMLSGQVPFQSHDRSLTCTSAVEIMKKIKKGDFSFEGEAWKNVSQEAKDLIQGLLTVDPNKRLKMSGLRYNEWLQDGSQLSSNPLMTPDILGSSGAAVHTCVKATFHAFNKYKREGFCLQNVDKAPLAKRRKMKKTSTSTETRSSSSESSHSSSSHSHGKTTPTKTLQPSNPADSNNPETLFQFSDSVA

[14] = target: Rsk2(h) (substrate histone H3 full length) (Homo sapiens, UniProt P51812); assay: Epigenetic enzyme assay, Kinases; format: biochemical; conditions: read-out: % Inhibition of Control Values
Sequence of Rsk2(h) (substrate histone H3 full length) (P51812 whole entry): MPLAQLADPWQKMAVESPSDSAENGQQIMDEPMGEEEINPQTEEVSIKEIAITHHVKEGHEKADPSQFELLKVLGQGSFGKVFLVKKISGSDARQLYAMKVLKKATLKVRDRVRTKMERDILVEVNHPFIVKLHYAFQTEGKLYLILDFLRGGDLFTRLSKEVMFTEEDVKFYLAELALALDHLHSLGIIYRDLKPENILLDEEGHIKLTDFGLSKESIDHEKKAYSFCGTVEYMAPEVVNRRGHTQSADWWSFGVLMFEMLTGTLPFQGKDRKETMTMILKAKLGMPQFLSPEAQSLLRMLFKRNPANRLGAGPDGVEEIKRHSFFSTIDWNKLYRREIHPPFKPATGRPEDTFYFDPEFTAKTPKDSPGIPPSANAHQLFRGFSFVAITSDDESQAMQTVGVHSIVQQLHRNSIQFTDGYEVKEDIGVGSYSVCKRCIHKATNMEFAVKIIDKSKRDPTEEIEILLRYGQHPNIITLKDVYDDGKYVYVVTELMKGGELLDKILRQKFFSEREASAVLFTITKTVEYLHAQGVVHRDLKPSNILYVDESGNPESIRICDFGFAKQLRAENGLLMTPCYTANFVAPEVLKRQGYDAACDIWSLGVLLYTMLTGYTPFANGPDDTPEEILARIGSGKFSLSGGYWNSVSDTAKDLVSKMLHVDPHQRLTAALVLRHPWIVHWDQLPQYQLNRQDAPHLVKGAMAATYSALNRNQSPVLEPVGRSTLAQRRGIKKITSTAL

[15] = human, human liver microsomes, read-out: % inhibition
[16] = CYP2C8 (paclitaxel sub.), Human liver microsomes, read-out: % Inhibition of Control Values
[17] = KG-1, Leukemia, read-out: Cell Count GI50

CC(C)=CCC[C@H](CO)[C@@H]1CC[C@@H](C)c2c1cc(C)c(O)c2O [Compound 1, 7,8,18-trihydroxyserrulat-14-ene]
inhibition at 10 µM [1]: 10% | inhibition at 10 µM [2]: 2% | inhibition at 10 µM [3]: 42% | inhibition at 1 µM [4, 15]: 12 to 24% | inhibition at 1 µM [4, 16]: 14% | inhibition at 10 µM [4, 16]: 76% | % Inhibition of Control Specific Binding ([5]; 10 μM): good inhibitory activity | inhibition at 10 µM [5]: 59% | % Inhibition of Control Specific Binding ([6]; 10 μM): significant inhibitory activity | inhibition at 10 µM ([6]; 10 μM): 76% | IC50 ([6]; Table 9, inhibition/concentration-response curve, read-out: IC50): 3.9 µM | Relative cell count (%) Mean ([7]; 3.00E+00 microM): 7.6% | Relative cell count (%) Mean ([7]; 3.00E+01 microM): 0.1% | Relative cell count (%) Mean ([7]; 3.01E−01 microM): 90.0% | Relative cell count (%) Mean ([7]; 3.01E−02 microM): 86.2% | Relative cell count (%) Mean ([7]; 3.02E−03 microM): 83.7% | Relative cell count (%) Mean ([7]; 9.49E+00 microM): 0.1% | Relative cell count (%) Mean ([7]; 9.51E−01 microM): 72.1% | Relative cell count (%) Mean ([7]; 9.52E−02 microM): 80.5% | Relative cell count (%) Mean ([7]; 9.53E−03 microM): 88.3% | Relative cell count (%) Mean ([7]; 9.55E−04 microM): 95.4% | EC50 [7]: 1.5 µM | GI50 [7]: 1.5 µM | IC50 [7]: 1.5 µM | inhibition at 1 µM ([8]; human liver microsomes): 13 to 16% | inhibition at 1 µM ([8]; liver microsomes): 13% | inhibition at 10 µM ([8]; liver microsomes): 55% | EC50 ([9]; KG-1, Leukemia): 0.12 µM | GI50 [9, 17]: 0.11 µM | IC50 ([9]; KG-1, Leukemia): 0.12 µM | GI50 ([9]; read-out: GI50): 0.11 µM | remaining activity at 10 µM [10]: 1% | % Inhibition of Control Values ([11]; 10 μM): significant inhibitory activity | inhibition at 10 µM ([11]; 10 μM): 91% | IC50 ([11]; Table 11, inhibition/concentration-response curve): 14 µM | EC50 [12]: 1.21 µM | GI50 [12]: 1.2 µM | IC50 [12]: 1.21 µM | Relative cell count (%) Mean ([12]; SW480, 3.00E+00 microM): 4.1% | Relative cell count (%) Mean ([12]; SW480, 3.00E+01 microM): 0.4% | Relative cell count (%) Mean ([12]; SW480, 3.01E−01 microM): 93.5% | Relative cell count (%) Mean ([12]; SW480, 3.01E−02 microM): 99.5% | Relative cell count (%) Mean ([12]; SW480, 3.02E−03 microM): 116.5% | Relative cell count (%) Mean ([12]; SW480, 9.49E+00 microM): 0.2% | Relative cell count (%) Mean ([12]; SW480, 9.51E−01 microM): 69.9% | Relative cell count (%) Mean ([12]; SW480, 9.52E−02 microM): 94.1% | Relative cell count (%) Mean ([12]; SW480, 9.53E−03 microM): 103.7% | Relative cell count (%) Mean ([12]; SW480, 9.55E−04 microM): 111.8% | inhibition at 10 µM [13]: 6% | inhibition at 10 µM [14]: 5%

CC(C)=CCC[C@@H]1C(O)Oc2c(C)cc(O)c3c2[C@H]1CC[C@H]3C (some centres unmarked) [Compound 2, 5,18-epoxyserrulat-14-en-8,18-diol]
inhibition at 10 µM [1]: 7% | inhibition at 10 µM [2]: 22% | inhibition at 10 µM [3]: 18% | inhibition at 1 µM [4, 15]: 12 to 24% | inhibition at 1 µM [4, 16]: 12% | inhibition at 10 µM [4, 16]: 52% | inhibition at 10 µM [5]: 3% | inhibition at 10 µM ([6]; 10 μM): 19% | EC50 [7]: 9.64 µM | GI50 [7]: 9.62 µM | IC50 [7]: 9.64 µM | inhibition at 1 µM ([8]; human liver microsomes): 13 to 16% | inhibition at 1 µM ([8]; liver microsomes): 15% | inhibition at 10 µM ([8]; liver microsomes): 38% | EC50 ([9]; KG-1, Leukemia): 11.3 µM | GI50 [9, 17]: 11.9 µM | IC50 ([9]; KG-1, Leukemia): 12 µM | remaining activity at 10 µM [10]: -23% | inhibition at 10 µM ([11]; 10 μM): 9% | EC50 [12]: 10.1 µM | GI50 [12]: 9.93 µM | IC50 [12]: 10.1 µM | inhibition at 10 µM [13]: 2% | inhibition at 10 µM [14]: 7%
